In patent US20160115540A1, “PRODRUGS AND DRUGS” (Biogen MA Inc., priority 2013, published 2016):
Structures can show the parent of a compound that is named as a salt.

System: jejunum
Assay: Transcriptional profiling on Affymetrix GeneChips, single dose, naïve mice: jejunum
Type: in vivo, C57BL/6 mice
Description: Treated mice were sacrificed at 2, 7, or 12 hours. Tissues (liver, spleen, kidney, jejunum, cortex, hippocampus, striatum and whole blood) were collected and analyzed by transcriptional profiling on mouse Affymetrix GeneChips.
Tissues (liver, spleen, kidney, jejunum, cortex, hippocampus, striatum and whole blood) were collected and analyzed by transcriptional profiling on mouse Affymetrix GeneChips.
Animals were exposed to CO2 and whole blood collected via cardiac puncture. Two 100 μl aliquots of whole blood were collected in 1.5 mL microcentrifuge tubes and snap frozen in liquid nitrogen. Peripheral (liver, spleen, kidney and jejunum) and CNS brain (cerebellum, hippocampus, striatum and cortex) tissues were harvested and snap frozen in liquid nitrogen, with special care taken to collect tissues of similar size and from the same location. All samples were stored at −80° C. until RNA extraction was conducted.
For RNA preparation, frozen tissues were placed in 2 mL RNAse-free 96-well blocks with 1.5 mL QIAzol Lysis Reagent (QIAgen) and a 3.2 mm stainless steel bead (BioSpec Products, Bartlesville, Okla.). Tissues were disrupted for four cycles of 45 seconds in a Mini-Beadbeater (Biospec Products). RNA was extracted in chloroform and the aqueous phase was mixed with an equal volume of 70% ethanol. Extracted RNA was applied to RNeasy 96 plates and purified by the spin method according to the manufacturer's protocol (RNeasy 96 Universal Tissue Protocol, QIAgen, Hilden Germany).
Automated sample amplifications and biotin labelings were carried out using the NuGEN Ovation RNA Amplification system V2 (Cat #3100), Ovation WB reagent (Cat #1300) and Encore Biotin module (Cat #4200) (NuGEN Technologies, Inc, San Carlos, Calif.) according to manufacturer's recommendations using an Arrayplex automated liquid handler (Beckman Coulter, Indianapolis, Ind.). Two micrograms of biotin labeled sscDNA probe were hybridized to Affymetrix GeneChip Affymetrix HT_MG-430_PM plate arrays with modified conditions as described in Allaire et al. Washing and staining of the hybridized arrays were completed as described in the GeneChip Expression analysis technical manual for HT plate arrays using the Genechip® Array Station (Affymetrix, Santa Clara, Calif.) with modifications as described in Allaire et al. The processed GeneChip® plate arrays were scanned using GeneTitan scanner (Affymetrix, Santa Clara, Calif.).
Affymetrix scans were subject to quality control (QC) measures. These tests included a visual inspection of the distribution of raw signal intensities and an assessment of RNA degradation, relative log expression (RLE), and normalized unsealed standard error (NUSE). All sample scans that passed these QC metrics were included in the analysis.
All CEL files were subjected to GC-content-based Robust Multi-array Average (GCRMA) normalization (version 2.20.0) (Irizarry R A, et al. Nucleic Acids Res 2003; 31:e15; Li C, et al. Genome Biol 2001; 2:[…]0032). Expression levels were log (base 2) transformed.
All calculations and analyses were carried out using R (version 2.11.1) and Bioconductor computational tools (Gentleman R. Springer Science+Business Media 2005).

[1] = 100DMF-vs-Veh or 100MMF-vs-Veh, 12 h

COC(=O)/C=C/C(=O)OC [DMF, dimethyl fumarate]
FC Lrp8 (1440882_PM_at) (100DMF-vs-100MMF, 2 h): −1.69 | FC Alb (1425260_PM_at) (100DMF-vs-100MMF, 7 h): 9.97 | FC G6pc (1417880_PM_at) (100DMF-vs-100MMF, 7 h): −2.45 | FC Abcc3 (1428988_PM_at) [1]: 2.02 | FC Acsm5 (1437662_PM_at) [1]: 1.86 | FC Akr1b8 (1448894_PM_at) [1]: 17.57 | FC Akr1c12 (1450455_PM_s_at) [1]: 1.72 | FC Akr1c19 (1455454_PM_at) [1]: 3.20 | FC Blvrb (1451386_PM_at) [1]: 1.53 | FC Cbr3 (1427912_PM_at) [1]: 25.95 | FC Ces1e (1419510_PM_at) [1]: 2.70 | FC Ces1f (1424266_PM_s_at) [1]: 6.17 | FC Ces1g (1449486_PM_at) [1]: 7.40 | FC G6pd2 (1422327_PM_s_at) [1]: 1.74 | FC Gpx2 (1449279_PM_at) [1]: 1.67 | FC Gsr (1421816_PM_at) [1]: 2.20 | FC Gss (1441931_PM_x_at) [1]: 1.53 | FC Gsta2 (1421040_PM_a_at) [1]: 5.65 | FC Gsta2 (1421041_PM_s_at) [1]: 2.04 | FC Gsta3 (1423436_PM_at) [1]: 10.36 | FC Gsta3 (1423437_PM_at) [1]: 7.86 | FC Gstm1 (1425627_PM_x_at) [1]: 4.63 | FC Gstm1 (1448330_PM_at) [1]: 4.15 | FC Gstm3 (1427473_PM_at) [1]: 2.03 | FC Gstm3 (1427474_PM_s_at) [1]: 1.57 | FC Gstm4 (1424835_PM_at) [1]: 5.03 | FC Gstm6 (1422072_PM_a_at) [1]: 1.95 | FC Nqo1 (1423627_PM_at) [1]: 2.30 | FC Pir (1429001_PM_at) [1]: 3.79 | FC Setd4 (1425239_PM_at) [1]: 1.66 | FC Setd4 (1460373_PM_a_at) [1]: 1.52 | FC Slc5a4b (1422757_PM_at) [1]: 2.21 | FC Ugt2b5 (1419622_PM_at) [1]: 4.92 | FC Ugt2b35 (1439624_PM_at) [1]: 2.37 | FC Ugt2b36 (1455595_PM_at) [1]: 2.94 | Number of genes, DMF Only / MMF Only (Jejunum): 9 | Akr1c13 (1418672_PM_at) differential expression (Jejunum, 2 hr): 1.62 | Areg (1421134_PM_at) differential expression (Jejunum, 2 hr): 3.58 | B3galt5 (1428397_PM_at) differential expression (Jejunum, 2 hr): −2.77 | Cbr1 (1460196_PM_at) differential expression (Jejunum, 2 hr): 1.55 | Ces1e (1419510_PM_at) differential expression (Jejunum, 2 hr): 1.85 | Dnase2a (1430135_PM_at) differential expression (Jejunum, 2 hr): 1.77 | Dppa5a (1416552_PM_at) differential expression (Jejunum, 2 hr): 3.07 | Dusp4 (1428834_PM_at) differential expression (Jejunum, 2 hr): 1.51 | Entpd5 (1433763_PM_at) differential expression (Jejunum, 2 hr): 1.53 | Ereg (1419431_PM_at) differential expression (Jejunum, 2 hr): 2.50 | Ero1l (1419030_PM_at) differential expression (Jejunum, 2 hr): 1.92 | Esd (1441604_PM_at) differential expression (Jejunum, 2 hr): 1.71 | Fam13a (1456611_PM_at) differential expression (Jejunum, 2 hr): 1.54 | Gclc (1424296_PM_at) differential expression (Jejunum, 2 hr): 4.25 | Gsr (1421816_PM_at) differential expression (Jejunum, 2 hr): 2.23 | Gss (1441931_PM_x_at) differential expression (Jejunum, 2 hr): 1.95 | Gsta3 (1423436_PM_at) differential expression (Jejunum, 2 hr): 4.03 | Gsta4 (1416368_PM_at) differential expression (Jejunum, 2 hr): 1.72 | Gstm1 (1416416_PM_x_at) differential expression (Jejunum, 2 hr): 2.30 | Mafg (1448916_PM_at) differential expression (Jejunum, 2 hr): 2.20 | Nos2 (1420393_PM_at) differential expression (Jejunum, 2 hr): −2.39 | Nqo1 (1423627_PM_at) differential expression (Jejunum, 2 hr): 2.16 | Osgin1 (1424022_PM_at) differential expression (Jejunum, 2 hr): 2.08 | Pgm2 (1437240_PM_at) differential expression (Jejunum, 2 hr): 2.15 | Prss8 (1418320_PM_at) differential expression (Jejunum, 2 hr): 2.60 | Ptk6 (1442923_PM_at) differential expression (Jejunum, 2 hr): −2.42 | Setd4 (1435405_PM_at) differential expression (Jejunum, 2 hr): 1.91 | Slc35e3 (1428805_PM_at) differential expression (Jejunum, 2 hr): 1.53 | Slc40a1 (1417061_PM_at) differential expression (Jejunum, 2 hr): 2.33 | Srr (1453421_PM_at) differential expression (Jejunum, 2 hr): 1.99 | Srxn1 (1425351_PM_at) differential expression (Jejunum, 2 hr): 1.71 | Tifa (1426501_PM_a_at) differential expression (Jejunum, 2 hr): −2.43 | Tox3 (1436600_PM_at) differential expression (Jejunum, 2 hr): 1.70 | Tsku (1440230_PM_at) differential expression (Jejunum, 2 hr): 1.61 | Ugt2b5 (1419622_PM_at) differential expression (Jejunum, 2 hr): 3.40 | Ugt2b36 (1455595_PM_at) differential expression (Jejunum, 2 hr): 2.07 | Unc5c1 (1429950_PM_at) differential expression (Jejunum, 2 hr): −1.53 | Abcc3 (1428988_PM_at) differential expression (Jejunum, 7 hr): 1.88 | Acsm5 (1437662_PM_at) differential expression (Jejunum, 7 hr): 1.60 | Akr1c13 (1418672_PM_at) differential expression (Jejunum, 7 hr): 1.61 | Cbr1 (1460196_PM_at) differential expression (Jejunum, 7 hr): 1.65 | Ces1e (1419510_PM_at) differential expression (Jejunum, 7 hr): 2.10 | Ddc (1426215_PM_at) differential expression (Jejunum, 7 hr): 1.74 | G6pd2 /// G6pdx (1422327_PM_s_at) differential expression (Jejunum, 7 hr): 1.82 | G6pdx (1448354_PM_at) differential expression (Jejunum, 7 hr): 1.54 | Gclc (1424296_PM_at) differential expression (Jejunum, 7 hr): 2.06 | Gm3776 /// Gsta1 /// Gsta2 (1421041_PM_s_at) differential expression (Jejunum, 7 hr): 1.72 | Gsr (1421816_PM_at) differential expression (Jejunum, 7 hr): 2.83 | Gss (1441931_PM_x_at) differential expression (Jejunum, 7 hr): 1.97 | Gsta3 (1423436_PM_at) differential expression (Jejunum, 7 hr): 4.27 | Gsta4 (1416368_PM_at) differential expression (Jejunum, 7 hr): 2.09 | Gstm1 (1416416_PM_x_at) differential expression (Jejunum, 7 hr): 3.19 | Gstm2 (1416411_PM_at) differential expression (Jejunum, 7 hr): 1.58 | Gstm4 (1424835_PM_at) differential expression (Jejunum, 7 hr): 3.83 | Gstm6 (1422072_PM_a_at) differential expression (Jejunum, 7 hr): 1.94 | Htatip2 (1451814_PM_a_at) differential expression (Jejunum, 7 hr): 1.51 | Nqo1 (1423627_PM_at) differential expression (Jejunum, 7 hr): 2.31 | Pir (1429001_PM_at) differential expression (Jejunum, 7 hr): 3.79 | Setd4 (1435405_PM_at) differential expression (Jejunum, 7 hr): 1.90 | Slc5a4b (1422757_PM_at) differential expression (Jejunum, 7 hr): 1.67 | Txnrd1 (1424487_PM_x_at) differential expression (Jejunum, 7 hr): 1.60 | Ugt2b5 (1419622_PM_at) differential expression (Jejunum, 7 hr): 3.42 | Ugt2b36 (1455595_PM_at) differential expression (Jejunum, 7 hr): 2.23 | Abcc3 (1428988_PM_at) differential expression (Jejunum, 12 hr): 2.02 | Acsm5 (1437662_PM_at) differential expression (Jejunum, 12 hr): 1.86 | Akr1c12 /// Akr1c13 (1450455_PM_s_at) differential expression (Jejunum, 12 hr): 1.72 | Aldh1a7 (1418601_PM_at) differential expression (Jejunum, 12 hr): 1.65 | Blvrb (1451386_PM_at) differential expression (Jejunum, 12 hr): 1.53 | Ces1e (1419510_PM_at) differential expression (Jejunum, 12 hr): 2.70 | G6pd2 /// G6pdx (1422327_PM_s_at) differential expression (Jejunum, 12 hr): 1.74 | Gm3776 /// Gsta1 /// Gsta2 (1421041_PM_s_at) differential expression (Jejunum, 12 hr): 2.04 | Gpx2 (1449279_PM_at) differential expression (Jejunum, 12 hr): 1.67 | Gsr (1421816_PM_at) differential expression (Jejunum, 12 hr): 2.20 | Gss (1441931_PM_x_at) differential expression (Jejunum, 12 hr): 1.53 | Gsta3 (1423436_PM_at) differential expression (Jejunum, 12 hr): 10.36 | Gsta4 (1416368_PM_at) differential expression (Jejunum, 12 hr): 2.58 | Gstm1 (1416416_PM_x_at) differential expression (Jejunum, 12 hr): 4.15 | Gstm2 (1416411_PM_at) differential expression (Jejunum, 12 hr): 2.04 | Gstm4 (1424835_PM_at) differential expression (Jejunum, 12 hr): 5.03 | Gstm6 (1422072_PM_a_at) differential expression (Jejunum, 12 hr): 1.95 | Nqo1 (1423627_PM_at) differential expression (Jejunum, 12 hr): 2.30
